Structures can show the parent of a compound that is named as a salt.
Tests used:
[1] = cited from earlier work
[2] = cited from earlier work; remark: listed apart in the source
[3] = Dissolution testing in USP-2 apparatus; assay type: physicochemical; settings: aqueous media, at or below 85 μm
Experimental: Usually the test result is established as an average for a pre-determined number of dosages (e.g., capsules, tablets, suspensions, or other dosage form), usually six. The dissolution media is typically maintained at 37° C. during the test. […] The amount of dissolved ziprasidone can be determined conventionally by HPLC, as hereinafter described.
A dosage form can be tested to assess its dissolution profile by dissolution testing it in a USP-2 apparatus. As previously described, the apparatus is implemented to contain 900 ml of 0.05 M NaH2 PO4 buffer, pH 7.5, containing 2% (w/w) sodium dodecyl sulfate. 1% pancreatin may be added if the dosage form being tested is a capsule, as previously noted. The pH can be adjusted as approprate using, for example, 5N NaOH or concentrated phosphoric acid. The USP-2 apparatus is equipped with paddles stirring at 75 rpm. […]
The amount of dissolved ziprasidone can be determined conventionally by HPLC. […] Quantification can be effected facilely by comparison of HPLC peak height (or area) with the peak height (or area) taken from a standard plot of concentration vs. peak height (or area) for standards of known concentration. As is conventional, the ziprasidone standard concentrations are selected to fall within a linear range of concentration vs absorbance for the UV detector employed.

[4] = Solubility; assay type: physicochemical

## O=C1Cc2cc(CCN3CCN(c4nsc5ccccc45)CC3)c(Cl)cc2N1 [ziprasidone hydrochloride]
[1]
  aqueous solubility: relatively poor aqueous solubility
[2]
  permeability: high permeability

## O=C1Cc2cc(CCN3CCN(c4nsc5ccccc45)CC3)c(Cl)cc2N1 [ziprasidone]
[3]
  dependence of dissolution rate on particle size: does not vary substantially with particle size
[4]; near-neutral pH
  solubility compared with the acid addition salt: much less soluble
[4]; slurry in THF/water process
  solubility: low solubility
